Assay results as given in US8889667B2 (Agios Pharmaceuticals, Inc, priority 2010, dated 2014).

Target: PKM2 (Homo sapiens, UniProt P14618)
Assay: PKM2 Assay (activation, LDH-coupled, absorbance at 340 nm)
Type: biochemical
Settings: Table 4
Outline: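 Read-out was the 340 nm NADH absorbance change at 25 °C in an LDH-coupled system (PEP 0.15 mM, NADH 180 μM, ADP 0.7 mM to initiate) in 50 mM Tris pH 7.5, 100 mM KCl, 5 mM MgCl2. PKM2 at 50 ng/well was first preincubated with compound for 30 min at 4 °C. Activation given as AC50.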

Chain of PKM2 (P14618 whole entry): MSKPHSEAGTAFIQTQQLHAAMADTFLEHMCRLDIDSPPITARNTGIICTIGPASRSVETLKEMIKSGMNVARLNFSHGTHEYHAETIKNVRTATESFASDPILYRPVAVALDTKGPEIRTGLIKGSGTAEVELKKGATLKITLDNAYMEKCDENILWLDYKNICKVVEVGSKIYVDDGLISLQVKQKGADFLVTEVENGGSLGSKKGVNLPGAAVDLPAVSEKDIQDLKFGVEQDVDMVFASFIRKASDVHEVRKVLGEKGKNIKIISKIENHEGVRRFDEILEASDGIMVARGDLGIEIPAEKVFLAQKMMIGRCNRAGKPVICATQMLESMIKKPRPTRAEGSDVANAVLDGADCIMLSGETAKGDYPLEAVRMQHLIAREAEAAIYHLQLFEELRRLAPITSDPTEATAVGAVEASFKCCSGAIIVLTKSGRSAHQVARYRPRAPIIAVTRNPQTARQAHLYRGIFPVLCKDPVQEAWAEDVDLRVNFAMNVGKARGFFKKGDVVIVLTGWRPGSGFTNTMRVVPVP

**Q.** For CC(c1c(F)cc(F)cc1F)N1CCN(C(=O)c2ccc(NS(=O)(=O)c3cccc4cccnc34)cc2)[C@H](C)C1 (stereo partly shown) [Compound 167], which AC50 is on record?
**A.** < 100 nM

**Q.** For CC(c1ccc(F)cc1Cl)N1CCN(C(=O)c2ccc(NS(=O)(=O)c3cccc4cccnc34)cc2)[C@H](C)C1 (stereo partly drawn) [Compound 191, N-(4-((2R)-4-(1-(2-chloro-4-fluorophenyl)ethyl)-2-methylpiperazine-1-carbonyl)phenyl)quinoline-8-sulfonamide], which AC50 is on record?
**A.** 100 to 500 nM

**Q.** CC(C)COC(=O)N1[C@H](C)CN(C(=O)c2ccc(NS(=O)(=O)c3cccc4cccnc34)cc2)C[C@@H]1C [Compound 105, (2S,6R)-isobutyl-2,6-dimethyl-4-(4-(quinoline-8-sulfonamido)benzoyl)piperazine-1-carboxylate] was tested. Which AC50 did it give?
**A.** 100 to 500 nM

**Q.** Which AC50 does the source give for C[C@H]1CN(Cc2ccc(F)cc2)CCN1C(=O)c1ccc(NS(=O)(=O)c2cccc3cccnc23)cc1Cl [Compound 184, (S)—N-(3-chloro-4-(4-(4-fluorobenzyl)-2-methylpiperazine-1-carbonyl)phenyl)quinoline-8-sulfonamide] here?
**A.** 100 to 500 nM

**Q.** How did the AC50 turn out when C[C@H]1CN(CC2CCOC2)CCN1C(=O)c1ccc(NS(=O)(=O)c2cccc3cccnc23)cc1Cl (stereo partly drawn) [Compound 187, N-(3-chloro-4-((2S)-2-methyl-4-((tetrahydrofuran-3-yl)methyl)piperazine-1-carbonyl)phenyl)quinoline-8-sulfonamide] was run?
**A.** 100 to 500 nM

**Q.** Which AC50 does the source give for COc1ccccc1N1CCN(C(=O)c2ccc(NS(=O)(=O)c3cccc4cccnc34)cc2)C(C)C1 (stereo not shown) [Compound 223, N-(4-(4-(2-methoxyphenyl)-2-methylpiperazine-1-carbonyl)phenyl)quinoline-8-sulfonamide] here?
**A.** < 100 nM

**Q.** For CC(c1c(F)ccc(F)c1F)N1CCN(C(=O)c2ccc(NS(=O)(=O)c3cccc4cccnc34)cc2)[C@H](C)C1 (stereo partly drawn) [Compound 190, N-(4-((2R)-2-methyl-4-(1-(2,3,6-trifluorophenyl)ethyl)piperazine-1-carbonyl)phenyl)quinoline-8-sulfonamide], which AC50 is on record?
**A.** < 100 nM

**Q.** C[C@@H]1CN(C(=O)c2ccccn2)CCN1C(=O)c1ccc(NS(=O)(=O)c2cccc3cccnc23)cc1 [Compound 103] was tested. Which AC50 did it give?
**A.** 100 to 500 nM

**Q.** For CC(c1ccc(F)cc1)N1CCN(C(=O)c2ccc(NS(=O)(=O)c3cccc4cccnc34)cc2)[C@H](C)C1 (stereo partly drawn) [Compound 133, N-(4-((2R)-4-(1-(4-fluorophenyl)ethyl)-2-methylpiperazine-1-carbonyl)phenyl)quinoline-8-sulfonamide], which AC50 is on record?
**A.** < 100 nM

**Q.** For C[C@@H]1CN(Cc2ccc(F)cc2)CCN1C(=O)c1ccc(NS(=O)(=O)c2cccc3cccnc23)cc1 [Compound 131, (R)—N-(4-(4-(4-fluorobenzyl)-2-methylpiperazine-1-carbonyl)phenyl)quinoline-8-sulfonamide], which AC50 is on record?
**A.** < 100 nM

**Q.** With CC(c1ccc(Cl)c(F)c1)N1CCN(C(=O)c2ccc(NS(=O)(=O)c3cccc4cccnc34)cc2)[C@@H](C)C1 (stereo partly shown) [Compound 182] as the compound, how does the AC50 read?
**A.** 100 to 500 nM

**Q.** Which AC50 does the source give for O=C(c1ccc(NS(=O)(=O)c2cccc3cccnc23)cc1)N1C2CCC1CN(Cc1ccc(F)cc1)C2 [Compound 226, N-(4-(3-(4-fluorobenzyl)-3,8-diazabicyclo[3.2.1]octane-8-carbonyl)phenyl)quinoline-8-sulfonamide] here?
**A.** < 100 nM

**Q.** For C[C@@H]1CN(CC2CCOC2)CCN1C(=O)c1ccc(NS(=O)(=O)c2cccc3cccnc23)cc1 (stereo partly drawn) [Compound 115, N-(4-((2R)-2-methyl-4-((tetrahydrofuran-3-yl)methyl)piperazine-1-carbonyl)phenyl)quinoline-8-sulfonamide], which AC50 is on record?
**A.** 100 to 500 nM

**Q.** O=C(c1ccc(NS(=O)(=O)c2cccc3cccnc23)cc1)N1C2CCC1CN(CC1CC1)C2 [Compound 228, N-(4-(3-(cyclopropylmethyl)-3,8-diazabicyclo[3.2.1]octane-8-carbonyl)phenyl)quinoline-8-sulfonamide] was tested. Which AC50 did it give?
**A.** 100 to 500 nM

**Q.** With C[C@H]1CN(Cc2c(F)cc(F)cc2F)CCN1C(=O)c1ccc(NS(=O)(=O)c2cccc3cccnc23)cc1 [Compound 164, (S)—N-(4-(2-methyl-4-(2,4,6-trifluorobenzyl)piperazine-1-carbonyl)phenyl)quinoline-8-sulfonamide] as the compound, how does the AC50 read?
**A.** 100 to 500 nM

**Q.** How did the AC50 turn out when C[C@@H]1CN(CC2CCCCO2)CCN1C(=O)c1ccc(NS(=O)(=O)c2cccc3cccnc23)cc1 (stereo partly drawn) [Compound 163, N-(4-((2R)-2-methyl-4-((tetrahydro-2H-pyran-2-yl)methyl)piperazine-1-carbonyl)phenyl)quinoline-8-sulfonamide] was run?
**A.** < 100 nM

**Q.** Which AC50 does the source give for CC(C)[C@H]1CN(Cc2cc(F)cc(F)c2)CCN1C(=O)c1ccc(NS(=O)(=O)c2cccc3cccnc23)cc1 [Compound 176] here?
**A.** 1000 to 20000 nM

Same assay, conditions: Table 5

**Q.** How did the AC50 turn out when COc1ccncc1CN1CCN(C(=O)c2ccc(NS(=O)(=O)c3cccc4cccnc34)c(OC(F)(F)F)c2)CC1 [Compound 305, N-(4-(4-((4-methoxypyridin-3-yl)methyl)piperazine-1-carbonyl)-2-(trifluoromethoxy)phenyl)quinoline-8-sulfonamide] was run?
**A.** 100 to 500 nM

**Q.** With O=C(c1ccc(NS(=O)(=O)c2cccc3cccnc23)cc1Cl)N1CCN(CC2CCCO2)CC1 (stereo not shown) [Compound 441, N-(3-chloro-4-(4-((tetrahydrofuran-2-yl)methyl)piperazine-1-carbonyl)phenyl)quinoline-8-sulfonamide] as the compound, how does the AC50 read?
**A.** 1000 to 20000 nM

**Q.** For O=C(c1ccc(NS(=O)(=O)c2cccc3cccnc23)cc1)N1CCN(C2(c3ccccc3)CCCC2)CC1 [Compound 406, N-(4-(4-(1-phenylcyclopentyl)piperazine-1-carbonyl)phenyl)quinoline-8-sulfonamide], which AC50 is on record?
**A.** < 100 nM

**Q.** With O=C(c1ccc(NS(=O)(=O)c2cccc3cccnc23)cc1)N1CCN(C(=O)c2cc(F)cc(F)c2)CC1 [Compound 345, N-(4-(4-(3,5-difluorobenzoyl)piperazine-1-carbonyl)phenyl)quinoline-8-sulfonamide] as the compound, how does the AC50 read?
**A.** 100 to 500 nM

**Q.** For O=C(c1ccc(NS(=O)(=O)c2cccc3cccnc23)cc1)N1CCN(C(=O)c2ccncc2F)CC1 [Compound 317, N-(4-(4-(3-fluoroisonicotinoyl)piperazine-1-carbonyl)phenyl)quinoline-8-sulfonamide], which AC50 is on record?
**A.** < 100 nM

**Q.** With COc1cc(C(=O)N2CCN(C(=O)c3cccc(OC)c3F)CC2)ccc1NS(=O)(=O)c1cccc2cccnc12 [Compound 320, N-(4-(4-(2-fluoro-3-methoxybenzoyl)piperazine-1-carbonyl)-2-methoxyphenyl)quinoline-8-sulfonamide] as the compound, how does the AC50 read?
**A.** 100 to 500 nM

**Q.** For O=C(c1cccnc1)N1CCN(C(=O)c2ccc(NS(=O)(=O)c3cccc4cccnc34)c(OC(F)(F)F)c2)CC1 [Compound 323, N-(4-(4-nicotinoylpiperazine-1-carbonyl)-2-(trifluoromethoxy)phenyl)quinoline-8-sulfonamide], which AC50 is on record?
**A.** 500 to 1000 nM

**Q.** For O=C(c1ccc(NS(=O)(=O)c2cccc3cccnc23)c(OC(F)(F)F)c1)N1CCN(Cc2cn[nH]c2)CC1 [Compound 383], which AC50 is on record?
**A.** 100 to 500 nM

**Q.** Which AC50 does the source give for O=C(c1ccc(NS(=O)(=O)c2cccc3cccnc23)c(OC(F)(F)F)c1)N1CCN(Cc2cccc(F)c2)CC1 [Compound 377, N-(4-(4-(3-fluorobenzyl)piperazine-1-carbonyl)-2-(trifluoromethoxy)phenyl)quinoline-8-sulfonamide] here?
**A.** 100 to 500 nM

**Q.** O=C(c1ccc(NS(=O)(=O)c2cccc3cccnc23)cc1)N1CCN(C(=O)c2ccno2)CC1 [Compound 365, N-(4-(4-(isoxazole-5-carbonyl)piperazine-1-carbonyl)phenyl)quinoline-8-sulfonamide] was tested. Which AC50 did it give?
**A.** < 100 nM

**Q.** With O=C(c1ccc(NS(=O)(=O)c2cccc3cccnc23)cc1Cl)N1CCN(CC2CCOCC2)CC1 [Compound 440, N-(3-chloro-4-(4-((tetrahydro-2H-pyran-4-yl)methyl)piperazine-1-carbonyl)phenyl)quinoline-8-sulfonamide] as the compound, how does the AC50 read?
**A.** 100 to 500 nM

**Q.** Which AC50 does the source give for CCOC(=O)N1CCN(C(=O)c2ccc(NS(=O)(=O)c3cccc4cccnc34)nc2)CC1 [Compound 446, Ethyl 4-(6-(quinoline-8-sulfonamido)nicotinoyl)piperazine-1-carboxylate] here?
**A.** 1000 to 20000 nM

**Q.** With CCOC(=O)N1CCN(C(=O)c2ccc(NS(=O)(=O)c3cccc4cccnc34)cn2)CC1 [Compound 447, Ethyl 4-(5-(quinoline-8-sulfonamido)picolinoyl)piperazine-1-carboxylate] as the compound, how does the AC50 read?
**A.** 1000 to 20000 nM

**Q.** How did the AC50 turn out when O=C(c1ccc(NS(=O)(=O)c2cccc3cccnc23)cc1Cl)N1CCN(Cc2cc(F)c(F)cc2F)CC1 [Compound 433, N-(3-chloro-4-(4-(2,4,5-trifluorobenzyl)piperazine-1-carbonyl)phenyl)quinoline-8-sulfonamide] was run?
**A.** < 100 nM

**Q.** For O=C(c1ccc(NS(=O)(=O)c2cccc3cccnc23)cc1)N1CCN(C(=O)c2cncs2)CC1 [Compound 348, N-(4-(4-(thiazole-5-carbonyl)piperazine-1-carbonyl)phenyl)quinoline-8-sulfonamide], which AC50 is on record?
**A.** < 100 nM

**Q.** CC(C)(C(=O)N1CCN(C(=O)c2ccc(NS(=O)(=O)c3cccc4cccnc34)c(OC(F)(F)F)c2)CC1)c1ccc(F)cc1 [Compound 362] was tested. Which AC50 did it give?
**A.** 100 to 500 nM

**Q.** With O=C(c1ccc(NS(=O)(=O)c2cccc3cccnc23)c(OC(F)(F)F)c1)N1CCN(C(=O)c2cscn2)CC1 [Compound 324, N-(4-(4-(thiazole-4-carbonyl)piperazine-1-carbonyl)-2-(trifluoromethoxy)phenyl)quinoline-8-sulfonamide] as the compound, how does the AC50 read?
**A.** 100 to 500 nM

**Q.** How did the AC50 turn out when O=C(c1ccc(NS(=O)(=O)c2cccc3cccnc23)cc1Cl)N1CCN(CC2CCCCO2)CC1 (stereo not shown) [Compound 439, N-(3-chloro-4-(4-((tetrahydro-2H-pyran-2-yl)methyl)piperazine-1-carbonyl)phenyl)quinoline-8-sulfonamide] was run?
**A.** 100 to 500 nM

**Q.** How did the AC50 turn out when O=C(c1ccc(NS(=O)(=O)c2cccc3cccnc23)c(OC(F)(F)F)c1)N1CCN(Cc2ccncc2F)CC1 [Compound 304, N-(4-(4-((3-fluoropyridin-4-yl)methyl)piperazine-1-carbonyl)-2-(trifluoromethoxy)phenyl)quinoline-8-sulfonamide] was run?
**A.** 100 to 500 nM

**Q.** For O=C(c1ccc(NS(=O)(=O)c2cccc3cccnc23)cc1Cl)N1CCN(CC2CCOC2)CC1 (stereo not shown) [Compound 429, N-(3-chloro-4-(4-((tetrahydrofuran-3-yl)methyl)piperazine-1-carbonyl)phenyl)quinoline-8-sulfonamide], which AC50 is on record?
**A.** 100 to 500 nM
